Results: patent publication US10966970B2, “Fused tricyclic compounds and uses thereof in medicine” (SUNSHINE LAKE PHARMA CO., LTD., priority 2017, dated 2021)

Experiments:
HBsAg secretion = assay: Inhibition of HBsAg secretion (ELISA); type: cell-based, HBV; details: Hepatitis B virus, HepG2.2.15, 240 h, read-out: HbsAg IC50 (nM)
Protocol: (§1) The chromosomes of HepG2.2.15 cells (SELLS, PNAS, 1987 and SELLS, JV, 1988) integrate the complete HBV genome and stably express viral RNA and viral proteins. HepG2.2.15 cells are able to secrete mature HBV particles and HBsAg into the culture medium. Viral particle DNA and HBsAg secreted by HepG 2.2.15 cells can be quantified by qPCR and ELISA methods, and the effects of the compound on virus replication and HBsAg secretion are thus examined.
(§2) HepG 2.2.15 Cells (8,000 per well) were seeded into 96-well cell culture plates in duplicate and cultured for 3 days until the cells grew to fill in pores. Cells were treated with 4-fold serial diluted compound solution for 10 days, and the compound solution was exchanged once every other day, the final concentration of DMSO in all wells was 0.5% and DMSO was used as a drug-free control. On the eleventh day, the supernatant was collected for quantitative detection of HBsAg.
The level of HBsAg secreted by the cells after treatment with the compound was detected by ELISA. The method used a hepatitis B surface antigen diagnostic kit (Shanghai K ehua Biotechnology Co., Ltd. 510910113). 25 ≈L of the supernatant to be examined (diluted to 75 ≈L in PBS) was added to each well of the ELISA plate, and a kit-positive control and a negative control were set. The ELISA plates were blocked with mounting paper and incubated at 37 eC for 60 minutes. The ELISA plate was took out, and the mounting paper was removed, then 50 ≈L of enzyme conjugate was added into each well. After shaking for 10 seconds, the ELISA plates were blocked with mounting paper and incubated at 37 eC for 30 minutes. The ELISA plate was took out, and the mounting paper was removed, and the ELISA plate was repeated washing five times: liquid in the wells was discard each time; the wells was filled with washing solution, then stood for 60 seconds and spined dry; and liquid residue on blotting paper was patted dry. After the washing was completed, to all wells was immediately added a mixture of freshly prepared developer A and developer B: 100 ≈L per well. After shaking for 10 seconds on oscillator, the ELISA plates were blocked with mounting paper and incubated at 37 eC for 30 minutes. To all wells were added 50 ≈L of stop solution. Data were read at a wavelength of 450 nm on an Envision plate reader. Concentration-HBsAg OD450 value was treated with Graphpad Prism 5 software and the IC50 of inhibition of HBsAg secretion by compounds was calculated by a four-parameter nonlinear regression model.

HBV DNA replication = assay: Inhibition of HBV virus replication (HBV DNA in supernatant, qPCR); type: cell-based; details: Hepatitis B virus, 240 h; HepG2.2.15 cells, 10 days treatment, supernatant HBV DNA by qPCR
Protocol: as §1
as §2, with “HBV DNA.” for “HBsAg.”
qPCR method was used for detection of viral genomic DNA, HBV primers were as follows: HBV-For-202, […]; HBV-Rev-315, […].
Using the SY BR Premix Ex Taq II—Takara DRR081S kit, 1 ≈L of the cell culture supernatant was used as a template, a plasmid containing the HBV genome was used for plotting a standard curve, and virus copy number was calculated using the standard curve. Concentration-virus copy number was treated with Graphpad Prism 5 software and the IC50 of inhibition of virus replication by compounds was calculated by a four-parameter nonlinear regression model.

Structure (SMILES) | IC50 (HBsAg secretion) | IC50 (HBV DNA replication)
COC(=O)c1cc2c(cc1-c1ccc(Cl)s1)CC(C(C)C)n1cc(C(=O)O)c(=O)cc1-2 (stereo not drawn) [Example 73, 9-(5-chlorothiophen-2-yl)-6-isopropyl-10-(methoxycarbonyl)-2-oxo-6,7-dihydro-2H-pyrido[2,1-a]isoquinoline-3-carboxylic Acid] | 12.7 nM | 3.88 nM
COCCCOc1cc2c(cc1-c1cncs1)-c1cc(=O)c(C(=O)O)cn1C(C(C)C)C2 (stereo not drawn) [Example 33, 6-isopropyl-9-(3-methoxypropoxy)-2-oxo-10-(thiazol-5-yl)-6,7-dihydro-2H-pyrido[2,1-a]isoquinoline-3-carboxylic Acid] | 3.08 nM | 1.93 nM
CC(C)C1Cc2cc(OCC3CCOCC3)c(-c3nccs3)cc2-c2cc(=O)c(C(=O)O)cn21 (stereo not drawn) [Example 21, 6-isopropyl-2-oxo-9-((tetrahydro-2H-pyran-4-yl)methoxy)-10-(thiazol-2-yl)-6,7-dihydro-2H-pyrido[2,1-a]isoquinoline-3-carboxylic Acid] | 0.35 nM | 0.3 nM
COCCCOc1cc2c(cc1C(=O)OCC(F)F)-c1cc(=O)c(C(=O)O)cn1C(C(C)C)C2 (stereo not drawn) [Example 35, 10-((2,2-difluoroethoxy)carbonyl)-6-isopropyl-9-(3-methoxypropoxy)-2-oxo-6,7-dihydro-2H-pyrido[2,1-a]isoquinoline-3-carboxylic Acid] | 9.25 nM | 7.59 nM
CC(C)C1Cc2cc(N3CCCC3)c(-c3nccs3)cc2-c2cc(=O)c(C(=O)O)cn21 (stereo not drawn) [Example 69, 6-isopropyl-2-oxo-9-(pyrrolidin-1-yl)-10-(thiazol-2-yl)-6,7-dihydro-2H-pyrido[2,1-a]isoquinoline-3-carboxylic Acid] | 15.2 nM | 10.2 nM
COCCCOc1cc2c(cc1-c1ccco1)-c1cc(=O)c(C(=O)O)cn1C(C(C)C)C2 (stereo not drawn) [Example 11, 10-(furan-2-yl)-6-isopropyl-9-(3-methoxypropoxy)-2-oxo-6,7-dihydro-2H-pyrido[2,1-a]isoquinoline-3-carboxylic Acid] | 1.6 nM | 1.9 nM
COc1cc2c(cc1-c1ncc(C(C)C)s1)CC(C(C)C)n1cc(C(=O)O)c(=O)cc1-2 (stereo not drawn) [Example 77, 6-isopropyl-9-(5-isopropylthiazol-2-yl)-10-methoxy-2-oxo-6,7-dihydro-2H-pyrido[2,1-a]isoquinoline-3-carboxylic Acid] | 2.87 nM | 2.79 nM
COCCCOc1cc2c(cc1-c1csc(C)n1)-c1cc(=O)c(C(=O)O)cn1C(C(C)C)C2 (stereo not drawn) [Example 14, 6-isopropyl-9-(3-methoxypropoxy)-10-(2-methylthiazol-4-yl)-2-oxo-6,7-dihydro-2H-pyrido[2,1-a]isoquinoline-3-carboxylic Acid] | 7.2 nM | 3.36 nM
COCCCOc1cc2c(cc1-c1nccs1)-c1cc(=O)c(C(=O)O)cn1C(C(C)C)C2 (stereo not drawn) [Example 9, 6-isopropyl-9-(3-methoxypropoxy)-2-oxo-10-(thiazol-2-yl)-6,7-dihydro-2H-pyrido[2,1-a]isoquinoline-3-carboxylic Acid] | 0.25 nM | 0.18 nM
COCCCOc1cc2c(cc1-c1ncco1)-c1cc(=O)c(C(=O)O)cn1C(C(C)C)C2 (stereo not drawn) [Example 10, 6-isopropyl-9-(3-methoxypropoxy)-10-(oxazol-2-yl)-2-oxo-6,7-dihydro-2H-pyrido[2,1-a]isoquinoline-3-carboxylic Acid] | 10.5 nM | 7.29 nM
COCCCOc1cc2c(cc1-c1ncc(Br)s1)-c1cc(=O)c(C(=O)O)cn1C(C(C)C)C2 (stereo not drawn) [Example 24, 10-(5-bromothiazol-2-yl)-6-isopropyl-9-(3-methoxypropoxy)-2-oxo-6,7-dihydro-2H-pyrido[2,1-a]isoquinoline-3-carboxylic Acid] | 9.99 nM | 8.63 nM
COCc1csc(-c2cc3c(cc2OC)-c2cc(=O)c(C(=O)O)cn2C(C(C)C)C3)n1 (stereo not drawn) [Example 78, 6-isopropyl-10-methoxy-9-(4-(methoxymethyl)thiazol-2-yl)-2-oxo-6,7-dihydro-2H-pyrido[2,1-a]isoquinoline-3-carboxylic Acid] | 3.26 nM | 2.84 nM
